{"source": "patent US20030166202A1", "about": "“P450 Monooxygenases of the cyp79 family” (priority 2000, published 2003)", "key": {"CYP79D1": {"molecular_target": "CYP79D1 (Manihot esculenta, UniProt Q9M7B8)", "sequence (Q9M7B8 2-542)": "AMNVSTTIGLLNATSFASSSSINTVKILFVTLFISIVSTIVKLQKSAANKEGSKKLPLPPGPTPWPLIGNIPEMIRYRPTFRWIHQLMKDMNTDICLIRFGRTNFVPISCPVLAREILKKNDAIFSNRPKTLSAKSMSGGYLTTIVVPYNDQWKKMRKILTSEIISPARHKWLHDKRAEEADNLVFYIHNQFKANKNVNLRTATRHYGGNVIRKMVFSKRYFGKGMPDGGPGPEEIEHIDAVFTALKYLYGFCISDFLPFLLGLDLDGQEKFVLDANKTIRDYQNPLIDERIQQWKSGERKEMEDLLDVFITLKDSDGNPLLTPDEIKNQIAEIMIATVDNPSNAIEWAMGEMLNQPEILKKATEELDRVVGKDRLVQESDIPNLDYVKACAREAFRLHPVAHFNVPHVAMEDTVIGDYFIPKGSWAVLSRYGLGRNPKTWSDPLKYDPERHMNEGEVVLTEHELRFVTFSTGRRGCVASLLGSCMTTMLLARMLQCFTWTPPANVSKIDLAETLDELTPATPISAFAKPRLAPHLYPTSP", "protocol": "Isolated, recombinant CYP79D1 is reconstituted and its catalytic activity determined in vitro using reaction mixtures with a total volume of 30 μl containing 2.5 pmol CYP79D1, 0.05 U NADPH P450-oxidoreductase (Benveniste et al, Biochem J 235: 365-373, 1986), 10.6 mM L-α-dioleyl phosphatidylcholine, 0.35 μCi [U-^14C]-L-amino acid (L-Val, L-Ile, L-Leu, L-Tyr or L-Phe; Amersham, Sweden), 1 mM NADPH, 0.1 M NaCl and 20 mM KPi pH 7.9. In assays containing ^14C-L-valine or ^14C-L-isoleucine, different amounts of unlabeled L- and D-amino acids (0-6 mM) are added. After incubation for 10 minutes at 30° C. the products formed are extracted into 60 μl ethyl acetate and separated on TLC sheets (Merck Kieselgel 60F254) using n-pentane/diethyl ether (50:50, v/v) or toluene/ethyl acetate (5:1, v/v) as eluents for aliphatic compounds and aromatic compounds, respectively. ^14C-labeled oximes are visualized and quantified using a STORM 840 phosphor imager (Molecular Dynamics, CA, USA). The activity of CYP79D1 is additionally measured in the presence of the inhibitors tetcyclasis, ABT and DPI under the same conditions as described above. For in vivo activity assays 200 μl P. pastoris cells are pelleted and resuspended in 100 μl 50 mM Tricine pH 7.9 and 0.35 μCi [U-^14C]-L-valine or L-isoleucine. After incubation for 30 minutes at 30° C. the cells are extracted with ethyl acetate and the products formed are analyzed as above.\nCYP79D1 is reconstituted with sorghum NADPH-P450 oxidoreductase in the presence of high amounts of the lipid L-α-dioleyl phosphatidylcholine and 100 mM NaCl. […] To examine the effect of inhibitors on isolated CYP79D1, reconstitutions are performed in the presence of tetcyclasis, ABT and DPI using the same conditions as for cassava microsomes."}, "CYP79F1": {"molecular_target": "CYP79F1 (Arabidopsis thaliana, UniProt Q949U1, M2A)", "sequence (Q949U1 whole entry M2A)": "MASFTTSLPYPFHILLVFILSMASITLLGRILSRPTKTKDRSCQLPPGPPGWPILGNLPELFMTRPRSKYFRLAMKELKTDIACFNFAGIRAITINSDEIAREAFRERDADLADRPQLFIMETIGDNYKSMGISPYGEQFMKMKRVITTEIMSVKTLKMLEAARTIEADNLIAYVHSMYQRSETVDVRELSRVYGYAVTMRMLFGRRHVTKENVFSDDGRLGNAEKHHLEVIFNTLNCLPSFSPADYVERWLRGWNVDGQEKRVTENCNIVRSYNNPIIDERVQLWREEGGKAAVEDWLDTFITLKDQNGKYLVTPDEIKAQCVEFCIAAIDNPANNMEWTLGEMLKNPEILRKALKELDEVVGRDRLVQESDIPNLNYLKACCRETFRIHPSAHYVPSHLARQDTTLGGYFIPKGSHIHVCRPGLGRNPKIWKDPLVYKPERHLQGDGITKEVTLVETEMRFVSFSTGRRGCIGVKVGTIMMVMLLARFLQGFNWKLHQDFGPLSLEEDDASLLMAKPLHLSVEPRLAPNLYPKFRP", "details": "E. coli C43(DE3) spheroplasts, GC-MS or TLC", "protocol": "In a typical enzyme assay, 5 μl spheroplasts and 4 μl NADPH:cytochrome P450 reductase (equivalent to 0.04 units defined as 1 μmol cytochrome c/min) are incubated with substrate in buffer containing 30 mM KPi, pH 7.5, 3 mM NADPH, 3 mM reduced glutathione, 0.042% Tween 80, 1 mg ml^−1 L-α-dilauroylphosphatidylcholine in a total volume of 30 μl. Reaction mixtures containing spheroplasts of E. coli C43(DE3) transformed with empty vector are used as controls in all assays. 3.3 μM L-[U-^14C]phenylalanine (453 mCi/mmol; Pharmacia), 3.7 μM L-[U-^14C]tyrosine (449 mCi/mmol; Pharmacia), 0.1 mM L-[methyl-^14C]methionine (56 mCi/mmol; Pharmacia), and 24 μM L-[side chain-3-^14C]tryptophan (56.5 mCi/mmol; NEN) are tested as potential substrates. After incubation at 28° C. for 1 hour, half of the reaction mixture is analyzed by TLC on Silica Gel 60 F254 sheets (Merck) using toluene/ethyl acetate 5:1 (v/v) as eluent. Radiolabelled bands are visualized and quantified using a STORM 840 phosphoimager (Pharmacia). For GC-MS analysis, 450 μl reaction mixture containing 3.3 mM L-methionine (Sigma), 3.3 mM DL-dihomomethionine or 3.3 mM DL-trihomomethionine, respectively, are incubated for 4 hours at 25° C. and extracted with a total volume of 600 μl CHCl3. The organic phase is collected, evaporated, and the residue is dissolved in 15 μl CHCl3 and analyzed by GC-MS. […] An SGE column (BPX5, 25 m×0.25 mm, 0.25 μm film thickness) is used (heat pressure 100 kPa, splitless injection). The oven temperature program is as follows: 80° C. for 3 minutes, 80° C. to 180° C. at 5° C. min^−1, 180° C. to 300° C. at 20° C. min^−1, and 300° C. for 10 min. The ion source is run in EI mode (70 eV) at 200° C. […] DL-dihomomethionine, DL-trihomomethionine, 5-methylthiopentanaldoxime and 6-methylthiohexanaldoxime are synthesized as described (Dawson et al, J. Biol. Chem. 268: 27154-27159, 1993) and authenticated by NMR spectroscopy."}, "CYP79B2": {"molecular_target": "T1, CYP79B2 (Arabidopsis thaliana, UniProt O81346)", "T1 sequence (O81346 1-541)": "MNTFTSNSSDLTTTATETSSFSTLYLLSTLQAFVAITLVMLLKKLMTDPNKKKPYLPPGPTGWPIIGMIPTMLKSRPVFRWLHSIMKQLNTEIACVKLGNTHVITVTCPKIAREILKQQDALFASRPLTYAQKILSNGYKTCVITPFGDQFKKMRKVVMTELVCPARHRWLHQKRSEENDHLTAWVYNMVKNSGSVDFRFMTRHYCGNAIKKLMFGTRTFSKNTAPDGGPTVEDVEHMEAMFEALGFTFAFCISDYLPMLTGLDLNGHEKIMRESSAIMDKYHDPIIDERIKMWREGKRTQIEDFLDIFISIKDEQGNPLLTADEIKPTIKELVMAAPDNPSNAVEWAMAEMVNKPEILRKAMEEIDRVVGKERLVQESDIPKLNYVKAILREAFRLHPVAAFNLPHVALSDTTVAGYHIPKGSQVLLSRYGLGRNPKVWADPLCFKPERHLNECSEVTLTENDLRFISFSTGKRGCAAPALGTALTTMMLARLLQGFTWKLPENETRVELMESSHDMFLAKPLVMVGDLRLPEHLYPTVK", "experiment": "CYP79B2 activity in E. coli spheroplasts reconstituted with NADPH:cytochrome P450 reductase", "details": "radiolabelled amino acid, TLC", "quoted_text": "The activity of CYP79B2 is measured by reconstituting spheroplasts from E. coli expressing CYP79B2 with purified NADPH:cytochrome P450 reductase from Sorghum bicolor (L.) Moench. […] The reaction is incubated at 34° C. for 30 minutes, extracted two times with ethyl acetate and the ethyl acetate phase is analyzed by TLC using toluen:ethyl acetate 5:1 as eluent. Radiolabelled bands are visualized on a Storm 840 phosphorimager (Molecular Dynamics) and quantified with ImageQuant analysis software (Molecular Dynamics). Substrate specificity is investigated by substituting the ^14C-labelled tryptophan with ^14C-labelled tyrosine or phenylalanine. GC-MS is employed to verify the structure of the compound produced from tryptophan by recombinant CYP79B2. A 450 μl reaction mixture as described above containing 2 mM unlabelled tryptophan is incubated at 34° C. for 2 hours. The reaction mixture is extracted twice with 300 μl CHCl3 and lyophilized until dryness. GC-MS is performed with an HP5890 Series II gas chromatograph coupled to a Jeol JMS-AX505W mass spectrometer. Splitless injection on an SGE column (BPX5, 25 mm×0.25 mm, 0.25 μm film thickness) and a head pressure of 100 kPa are used.\nSingle colonies are grown overnight at 37° C. in LB medium containing 100 μg/ml ampicillin. 1 ml of the overnight culture is used to inoculate 75 ml TB medium containing 100 μg/ml ampicillin, 75 μg/ml δ-aminolevulinic acid, 1 mM thiamine and 1 mM IPTG. The TB cultures are grown for 44 hours at 125 rpm and 28° C."}, "CYP79D2": {"molecular_target": "T2, CYP79D2 (Manihot esculenta, UniProt Q9M7B7)", "T2 construct": "made in house", "T2 sequence (Q9M7B7 whole entry)": "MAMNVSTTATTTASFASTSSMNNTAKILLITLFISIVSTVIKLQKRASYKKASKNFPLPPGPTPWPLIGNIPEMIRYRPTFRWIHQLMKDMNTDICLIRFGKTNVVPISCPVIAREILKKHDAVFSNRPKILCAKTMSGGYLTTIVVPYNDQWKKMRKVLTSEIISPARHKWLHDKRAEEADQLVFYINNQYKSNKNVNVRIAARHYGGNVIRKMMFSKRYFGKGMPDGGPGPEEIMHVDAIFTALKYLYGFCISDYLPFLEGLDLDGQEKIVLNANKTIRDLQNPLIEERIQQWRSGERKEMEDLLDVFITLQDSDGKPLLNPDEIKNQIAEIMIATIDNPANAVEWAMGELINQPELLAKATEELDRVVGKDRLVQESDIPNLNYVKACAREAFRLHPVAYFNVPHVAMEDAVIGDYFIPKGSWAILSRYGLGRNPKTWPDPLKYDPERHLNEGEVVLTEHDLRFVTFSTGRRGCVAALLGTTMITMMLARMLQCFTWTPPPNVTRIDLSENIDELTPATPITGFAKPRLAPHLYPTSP", "format": "biochemical, cassava", "protocol": "Investigations into the substrate specificity of CYP79D1, CYP79D2, CYP79E1, CYP79E2, CYP79A2, CYP79B2, CYP79B5 and CYP79F1 are carried out in E. coli spheroplasts reconstituted with sorghum NADPH-cytochrome P450 oxidoreductase in the presence of high amounts of lipids. L-α-dioleyl phosphatidyl choline and L-α-dilauroyl phosphatidyl choline are preferred lipids for the reconstitution. […] Depending on the nature of the substrate, substrate specificity may also be determined using intact P. pastoris cells or intact E. coli cells.\nThe ability of a P450 monooxygenase to convert an aliphatic or aromatic amino acid or chain-elongated methionine homologue to the corresponding oxime can be tested in an assay (see also example 5) comprising\na) incubating a reaction mixture comprising the P450 monooxygenase of the present invention or spheroplasts of E.coli cells expressing said enzyme, the parent amino acid, NADPH, oxygen, NADPH-cytochrome P450 oxidoreductase and lipid at ambient temperature for a certain period of time which is between 2 min and 2 to 6 hours;\nb) terminating the reaction for example by the addition of a denaturing compounds such as ethyl acetate; and\nc) chemically identifying and quantifying the aldoxime produced."}}, "data": [{"smiles": "N[C@@H](Cc1ccc(O)cc1)C(=O)O", "note": "[L-tyrosine]", "values": [{"measurement": "metabolism relative to that observed with L-valine (detection level)", "setting": "CYP79D1", "value": "< 0.8", "unit": "%"}, {"measurement": "formation of the corresponding aldoxime by CYP79F1", "setting": "CYP79F1", "value": "did not result in the formation of detectable amounts of the corresponding aldoximes"}, {"measurement": "oxime production by CYP79B2", "setting": "CYP79B2", "value": "No oxime producing activity is detected"}, {"measurement": "conversion to the corresponding oxime by CYP79D2", "setting": "CYP79D2", "value": "Neither L-Leucine, L-phenylalanine nor L-tyrosine are metabolized"}]}]}
